Assay [1] concerns dopamine-induced delayed gastric emptying model. The assay is described as follows: Effect on gastric emptying in dopamine-induced delayed gastric emptying model (phenol red method). The class given is in vivo, male Slc:ddY mice. The settings on record: for Gastric emptying rate (%): 90 min before phenol red, dopamine 30 mg/kg i.p. 5 min before, measured 30 min after phenol red. The method, then: Effect on gastric emptying in dopamine-induced delayed gastric emptying model (phenol red method) After overnight fasting, male Slc:ddY mice of 6 to 7 weeks of age (body weight, 28 to 32 g; SLC, Shizuoka, Japan) were divided into 7 groups, namely a group in which dopamine was administered with no drug treatment (No. 1 in Table 2), groups in which dopamine was administered after administration of the compound A (Nos. 2 to 5), a group in which dopamine was administered after administration of cisapride as a positive control (No. 6) and a group in which dopamine and drug treatments were not made (No. 7). Seven mice were used in each group. First, 90 minutes before the administration of phenol red, 0.01 mg/kg, 0.03 mg/kg, 0.1 mg/kg or 0.3 mg/kg of the compound A suspended in 0.5% carboxymethylcellulose was orally administered to mice of the compound A administration groups (Nos. 2 to 5), 3 mg/kg of cisapride suspended in 0.5% carboxymethylcellulose was orally administered to mice as the positive control drug administration group (No. 6) and 0.5% carboxymethylcellulose was orally administered to mice as the dopamine administration group with no drug treatment (No. 1) and the no drug and no dopamine treatment group (No. 7). Next, 5 minutes before the phenol red administration, 30 mg/kg of dopamine which has been dissolved in distilled water and then diluted with physiological saline was intraperitoneally administered to mice of each group. Thereafter, phenol red dissolved in 1% methylcellulose was orally administered with a dose of 0.2 mg/0.3 ml/mouse. […] mouse/X)]×100 (X is an average value of the recovered phenol red remained in the stomach excised from each mouse sacrificed just after the phenol red administration)

Assay [2] relates to cholecystokinin (CCK)-induced delayed gastric emptying model. Put plainly: Effect on gastric emptying in cholecystokinin (CCK)-induced delayed gastric emptying model (Phenol red method). Format: in vivo, male Slc:ddY mice. The settings on record: for Gastric emptying rate (%): 90 min before phenol red, CCK 5 μg/kg i.p. 5 min before, measured 30 min after phenol red. How it is done: Effect on gastric emptying in cholecystokinin (CCK)-induced delayed gastric emptying model (Phenol red method)
After overnight fasting, male Slc:ddY mice of 6 to 7 weeks of age (body weight, 20 to 30 g; SLC, Shizuoka, Japan) were divided into six groups: a group in which cholecystokinin was administered with no drug treatment (No. 1 in Table 1), groups in which cholecystokinin was administered after administration of compound A (Nos. 2 to 4), a group in which cholecystokinin was administered after administration of cisapride as a positive control (No. 5) and a group in which cholecystokinin and drug treatments were not made (No. 6). Five to 15 mice were used in each group.
First, 90 minutes before the administration of phenol red, 1 mg/kg, 3 mg/kg or 10 mg/kg of compound A suspended in 0.5% carboxymethylcellulose was orally administered to mice of the compound A administration groups, respectively, (Nos. 2 to 4), 3 mg/kg of cisapride suspended in 0.5% carboxymethylcellulose was orally administered to mice as the positive control drug administration group (No. 5) and 0.5% carboxymethylcellulose was orally administered to mice of the […] (No. 1) and the no drug and no cholecystokinin treatment group (No. 6). Next, 5 minutes before the phenol red administration, 5 μg/kg of cholecystokinin (CCK8s, manufactured by Sigma) which had been dissolved in distilled water and then diluted with physiological saline was intraperitoneally administered to mice of each group. Thereafter, phenol red dissolved in 1% methylcellulose was orally administered with a dose of 0.2 mg/0.3 ml/mouse. After 30 minutes of the phenol red administration, each mouse was sacrificed by cervical dislocation to excise the stomach, and the amount of phenol red remaining in the excised stomach was measured to calculate the gastric emptying rate (%) by the following formula.
Gastric emptying rate (%)=[1-(phenol red recovered from drug-applied
(X is the average value of the recovered phenol red remaining in the stomach excised from each mouse sacrificed just after the phenol red administration)

In assay [3] the test system is patients diagnosed as chronic gastritis and the like without morphological changes in the stomach. Put plainly: Effect on gastric emptying in patients (acetaminophen method). The class given is in vivo, human. From the text:
(§1) Effects on subjective symptoms and gastric emptying in patients
(§2) A total of 8 patients diagnosed as chronic gastritis and the like without morphological changes in the stomach were examined in this test, each patient complaining of medium or more intense chronic epigastric fullness, having other NUD (or epigastric dysfunction complaints) such as gastric oppression, nausea, vomiting, anorexia, heartburn and the like and also showing delayed gastric emptying.
(§3) Each patient was allowed to take 2 tablets of the test pharmaceutical preparation of Example 1 three times a day 15 to 30 minutes before morning, noon and evening meals (600 mg of compound A/day), and the administration was continued for 2 weeks. Subjective symptoms (Table 3) were checked before and 2 weeks after the administration and gastric emptying (Table 4) was checked before and 2 weeks after the administration.
Gastric emptying was examined in accordance with the acetaminophen method of Heading et al (cf. Br. J. Pharmacol. 47 415-421 (1973)). That is, each patient after overnight fasting with no drug administration was allowed to take a test food (200 ml of a liquid natural food OKUNOS-A, thoroughly mixed with 1.5 g of acetaminophen) at 9 a.m. and then to take a seat without eating and drinking until completion of the examination. Heparinized blood samples were collected before and 45 minutes after the administration. Thereafter, serum was separated from each sample to measure serum acetaminophen concentration by a high performance liquid chromatography (HPLC).

Assay [4] has the same test system. The assay is described as follows: Effects on subjective symptoms in patients. Format: in vivo, human.
Excerpt: as §1, §2, §3
Subjective symptoms were examined by checking existence of the symptoms before and 2 weeks after the administration.

The mark [5] stands for this setting: 2 tablets of Example 1 three times a day (600 mg of compound A/day), 2 weeks.

Values joined by “and” are separate entries in the source; they are usually repeats but may differ in a detail not shown here. Equal values may be shown once. Ends that are not written are not given here. * marks the point of attachment. SO3H = O=S(=O)(O)*

As for `NCCc1ccc(O)c(O)c1` [dopamine, reference compound], the “gastric emptying rate reduced to (fraction)” value in assay [1] (30 mg/kg dopamine intraperitoneal, no drug) is 1/20.
Consider “cholecystokinin (DY(SO3H)MGWMDF; not fully specified (C-terminus); ends and bridges not checked; UniProt P06307 96-103, looked up) [cholecystokinin (CCK8s, manufactured by Sigma), reference compound]”, for which the “gastric emptying rate reduced to (fraction)” value in assay [2] (5 μg/kg cholecystokinin intraperitoneal, no drug) is given as 1/3.
Take `COc1cc(N)c(Cl)cc1C(=O)NC1CCN(CCCOc2ccc(F)cc2)CC1OC` (stereo not drawn) [Cisapride, cisapride, reference compound]: the “Gastric emptying rate (%)” value worked out at 36.7 ± 6.8% in assay [2] (positive control, 3 mg/kg oral) and 23.4 ± 6.6% in assay [1] (3 mg/kg oral).
In the case of `CNC(=O)c1cccc(NCC(=O)NCCc2ccc(OC)c(OC)c2)c1` [Compound A, 3-[[[2-(3,4-dimethoxyphenyl)ethyl]carbamoyl]methyl]amino-N-methylbenzamide], the “Serum acetaminophen concentration, After administration” value in assay [3] (2 weeks after start, 600 mg of compound A/day oral, individual patients No. 1 to 8 in order, 45 minutes after 1.5 g acetaminophen in test food) is 7.6 µg/mL and 10.1 µg/mL and 12.8 µg/mL and 7.8 µg/mL and 7.3 µg/mL and 8.1 µg/mL and 8.5 µg/mL and 7.1 µg/mL. For the same compound, the “amelioration of gastric emptying (cases)” value in assay [3] (2 weeks, 600 mg of compound A/day oral) is on record as 7 of the 8. The “Serum acetaminophen concentration, Before administration” value in assay [3] (baseline before drug administration, individual patients No. 1 to 8 in order, 45 minutes after 1.5 g acetaminophen in test food) was 7.6 µg/mL and 8.4 µg/mL and 8.0 µg/mL and 6.1 µg/mL and 6.9 µg/mL and 6.6 µg/mL and 5.2 µg/mL and 4.6 µg/mL. Moreover, the “Gastric emptying rate (%)” value in assay [2] (1 mg/kg oral) is given as 24.8 ± 2.1%; in assay [2] (3 mg/kg oral), 27.6 ± 4.2%; in assay [2] (10 mg/kg oral), 40.5 ± 6.9%; in assay [1] (0.01 mg/kg oral), 6.9 ± 4.7%; in assay [1] (0.03 mg/kg oral), 21.2 ± 6.1%; in assay [1] (0.1 mg/kg oral), 18.1 ± 8.3%. In addition, in assay [1] (0.3 mg/kg oral), the “Gastric emptying rate (%)” value was 36.2 ± 10.2%. The “gastric emptying rate improved” value in assay [2] (1 mg/kg, 3 mg/kg or 10 mg/kg oral, vs CCK-treated mice with reduced gastric emptying rate) is listed as “improved in a dose dependent fashion”; in assay [1] (0.01 mg/kg, 0.03 mg/kg, 0.1 mg/kg or 0.3 mg/kg oral, vs dopamine-treated mice with reduced gastric emptying rate) it was “improved”. In addition, in assay [4] (setting [5]), the “Symptom-disappeared cases/tested cases: Abdominal distension” value was 7/7. Besides, the “Symptom-disappeared cases/tested cases: Anorexia” value in assay [4] (setting [5]) is 3/3. Also, the “Symptom-disappeared cases/tested cases: Epigastralgia” value in assay [4] (setting [5]) is reported as 4/4. The “Symptom-disappeared cases/tested cases: Gastric disphoria” value in assay [4] (setting [5]) is listed as 4/4. The “Symptom-disappeared cases/tested cases: Heartburn” value in assay [4] (setting [5]) is recorded as 2/2. Besides, the “Symptom-disappeared cases/tested cases: Nausea” value in assay [4] (setting [5]) is reported as 4/4. In addition, the “Symptom-disappeared cases/tested cases: Vomiting” value in assay [4] (setting [5]) is recorded as 3/3. Also, in assay [4] (patients No. 1 to No. 8, after 2 weeks, 600 mg/day oral), the “disappearance of subjective symptoms” value was “complete disappearance of subjective symptoms”.
